{"source": "patent US5114843A", "about": "“Humoral hypercalcemic factor antagonists” (Merck & Co., Inc., priority 1991, dated 1992)", "target": "T1, Bovine renal cortical plasma membranes (Bos taurus, UniProt Q1LZF7)", "T1 construct": "from tissue; host or cells: bovine renal cortex plasma membranes", "T1 sequence (Q1LZF7 29-589)": "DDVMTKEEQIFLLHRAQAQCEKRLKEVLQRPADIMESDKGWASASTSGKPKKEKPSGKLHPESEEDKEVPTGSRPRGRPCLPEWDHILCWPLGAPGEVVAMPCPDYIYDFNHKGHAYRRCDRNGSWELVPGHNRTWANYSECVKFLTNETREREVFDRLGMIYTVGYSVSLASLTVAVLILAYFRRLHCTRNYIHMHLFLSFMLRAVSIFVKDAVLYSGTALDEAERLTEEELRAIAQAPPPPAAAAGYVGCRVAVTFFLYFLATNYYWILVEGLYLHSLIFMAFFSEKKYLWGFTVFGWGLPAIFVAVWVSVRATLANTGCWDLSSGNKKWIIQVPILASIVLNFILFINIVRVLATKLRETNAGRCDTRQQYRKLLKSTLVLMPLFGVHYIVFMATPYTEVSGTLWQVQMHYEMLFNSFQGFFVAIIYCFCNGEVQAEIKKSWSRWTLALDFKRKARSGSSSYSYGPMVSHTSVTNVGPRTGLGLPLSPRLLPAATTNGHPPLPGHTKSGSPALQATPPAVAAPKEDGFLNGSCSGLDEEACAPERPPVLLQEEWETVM", "assay": "HCF binding (receptor) assay with [Nle8,18,(125I)-Tyr34]bPTH(1-34)NH2 radioligand", "conditions": "radioligand [Nle8,18,(125I)-Tyr34]bPTH(1-34)NH2, 30 min at 21° C", "method": "HCF analogues were analysed in a new receptor assay (Goldman et al., Endocrinol. (1988) 123: 1468-1475) which modified the assay reported in Rosenblatt et al., Endocrin. 107: 545-550 (1980). The binding assay used [Nle^8,18 (^125 I)-Tyr^34 ]bPTH (1-34)NH2 which was purified by HPLC (Novapak C18, 32-35% CH3 CN in 0.1% TFA) and was stored as aliquots in 25 mM TrisHCl/1%BSA at -70° C. Bovine renal cortical plasma membranes were incubated with radioligand (25,000 cpm) in the absence or presence of HCF analogues in a Tris-containing buffer (250 μl) for 30 min. at 21° C. Once equilibrium was reached, bound and free radioligand were separated by centrifugation.\nHigh specific binding (85%) to bovine renal cortical membranes was obtained consistently."}
{"smiles": "CC[C@H](C)[C@H](NC(=O)[C@H](CC(C)C)NC(=O)[C@H](Cc1c[nH]cn1)NC(=O)[C@H](Cc1c[nH]cn1)NC(=O)[C@H](CC(C)C)NC(=O)[C@H](Cc1ccccc1)NC(=O)[C@H](Cc1ccccc1)NC(=O)[C@H](CCCNC(=N)N)NC(=O)[C@H](CCCNC(=N)N)NC(=O)[C@H](CCCNC(=N)N)NC(=O)[C@H](CC(C)C)NC(=O)[C@H](CC(=O)O)NC(=O)[C@H](CCC(N)=O)NC(=O)[C@@H](NC(=O)[C@@H](N)CO)[C@@H](C)CC)C(=O)N[C@@H](C)C(=O)N[C@@H](CCC(=O)O)C(=O)N[C@H](C(=O)N[C@@H](Cc1c[nH]cn1)C(=O)N[C@H](C(=O)N[C@@H](C)C(N)=O)[C@@H](C)O)[C@@H](C)CC", "note": "[hHCF(14-34)NH2]", "values": [{"measurement": "Ki", "value": "1400 ± 83", "unit": "nM"}]}
